Data as given in PubChem BioAssay (NCI).
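Briefly, cells in 96-well plates were exposed to five compound concentrations for 48 h, and endpoints were estimated by linear interpolation. GI50 is the concentration that inhibits growth by half. TGI is the concentration that stops growth completely.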

Tests used:
Assay in all cases: NCI-60 cell line screen, 48 h
SN12C renal = system: SN12C renal
SF-295 CNS = system: SF-295 CNS
U251 CNS = system: U251 CNS
LOX IMVI melanoma = system: LOX IMVI melanoma
SNB-19 CNS = system: SNB-19 CNS
T-47D breast = system: T-47D breast
UO-31 renal = system: UO-31 renal
TK-10 renal = system: TK-10 renal
HT29 colon = system: HT29 colon
SK-OV-3 ovarian = system: SK-OV-3 ovarian
786-0 renal = system: 786-0 renal
HCT-116 colon = system: HCT-116 colon
SF-268 CNS = system: SF-268 CNS
NCI-H23 lung = system: NCI-H23 lung
NCI-H460 lung = system: NCI-H460 lung
HCC-2998 colon = system: HCC-2998 colon
KM12 colon = system: KM12 colon
M14 melanoma = system: M14 melanoma
UACC-257 melanoma = system: UACC-257 melanoma
HL-60(TB) leukemia = system: HL-60(TB) leukemia
HS 578T breast = system: HS 578T breast
SF-539 CNS = system: SF-539 CNS
OVCAR-8 ovarian = system: OVCAR-8 ovarian
EKVX NSCLC = system: EKVX NSCLC
SK-MEL-2 melanoma = system: SK-MEL-2 melanoma
HOP-62 NSCLC = system: HOP-62 NSCLC
NCI/ADR-RES ovarian = system: NCI/ADR-RES ovarian
SW-620 colon = system: SW-620 colon
HCT-15 colon = system: HCT-15 colon
MOLT-4 leukemia = system: MOLT-4 leukemia
RXF 393 renal = system: RXF 393 renal
NCI-H226 lung = system: NCI-H226 lung
BT-549 breast = system: BT-549 breast
OVCAR-4 ovarian = system: OVCAR-4 ovarian
MDA-MB-435 = system: MDA-MB-435
SK-MEL-28 melanoma = system: SK-MEL-28 melanoma
ACHN renal = system: ACHN renal
K-562 leukemia = system: K-562 leukemia
A549 NSCLC = system: A549 NSCLC
OVCAR-5 ovarian = system: OVCAR-5 ovarian
CAKI-1 renal = system: CAKI-1 renal
HOP-92 NSCLC = system: HOP-92 NSCLC
CCRF-CEM leukemia = system: CCRF-CEM leukemia
RPMI-8226 leukemia = system: RPMI-8226 leukemia
MCF7 breast = system: MCF7 breast
UACC-62 melanoma = system: UACC-62 melanoma
PC-3 prostate = system: PC-3 prostate
SR leukemia = system: SR leukemia
OVCAR-3 ovarian = system: OVCAR-3 ovarian
A498 renal = system: A498 renal
DU-145 prostate = system: DU-145 prostate
MALME-3M melanoma = system: MALME-3M melanoma
COLO 205 colon = system: COLO 205 colon
SK-MEL-5 melanoma = system: SK-MEL-5 melanoma
IGROV1 ovarian = system: IGROV1 ovarian
MDA-MB-231 breast = system: MDA-MB-231 breast
SNB-75 CNS = system: SNB-75 CNS
NCI-H522 lung = system: NCI-H522 lung

COc1cccc2[nH]c3c4c(c5c(c3c12)C(=O)N(CN1CCN(C)CC1)C5=O)CCC4
GI50 (SN12C renal): 11.2 µM | TGI (SN12C renal): 33.9 µM | GI50 (SF-295 CNS): 10.1 µM | TGI (SF-295 CNS): 25.6 µM | GI50 (U251 CNS): 6.3 µM | TGI (U251 CNS): 21.8 µM | GI50 (LOX IMVI melanoma): 11.8 µM | TGI (LOX IMVI melanoma): 40.7 µM | GI50 (SNB-19 CNS): 13.3 µM | TGI (SNB-19 CNS): 34.6 µM | GI50 (T-47D breast): 4.62 µM | TGI (T-47D breast): > 73.9 µM | GI50 (UO-31 renal): 2760 nM | TGI (UO-31 renal): > 23.8 µM | GI50 (TK-10 renal): 6.85 µM | TGI (TK-10 renal): 28.3 µM | GI50 (HT29 colon): 8.99 µM | TGI (HT29 colon): 29.8 µM | GI50 (SK-OV-3 ovarian): 11.7 µM | TGI (SK-OV-3 ovarian): 29.8 µM | GI50 (786-0 renal): 13.3 µM | TGI (786-0 renal): 31.8 µM | GI50 (HCT-116 colon): 13.2 µM | TGI (HCT-116 colon): 45.7 µM | GI50 (SF-268 CNS): 13.5 µM | TGI (SF-268 CNS): > 52.3 µM | GI50 (NCI-H23 lung): 15 µM | TGI (NCI-H23 lung): > 72.5 µM | GI50 (NCI-H460 lung): 6.35 µM | TGI (NCI-H460 lung): 25.8 µM | GI50 (HCC-2998 colon): 15.6 µM | TGI (HCC-2998 colon): > 76 µM | GI50 (KM12 colon): 12.3 µM | TGI (KM12 colon): 49.7 µM | GI50 (M14 melanoma): 9.91 µM | TGI (M14 melanoma): > 80.4 µM | GI50 (UACC-257 melanoma): 14.8 µM | TGI (UACC-257 melanoma): 45.1 µM | GI50 (HL-60(TB) leukemia): 19.6 µM | TGI (HL-60(TB) leukemia): > 75.1 µM | GI50 (HS 578T breast): 18.2 µM | TGI (HS 578T breast): > 88.3 µM | GI50 (SF-539 CNS): 11.3 µM | TGI (SF-539 CNS): 26 µM | GI50 (OVCAR-8 ovarian): 8.6 µM | TGI (OVCAR-8 ovarian): 26.5 µM | GI50 (EKVX NSCLC): 14.1 µM | TGI (EKVX NSCLC): 83.3 µM | GI50 (SK-MEL-2 melanoma): 22.7 µM | TGI (SK-MEL-2 melanoma): > 100 µM | GI50 (HOP-62 NSCLC): 14.5 µM | TGI (HOP-62 NSCLC): 39.1 µM | GI50 (NCI/ADR-RES ovarian): 12.2 µM | TGI (NCI/ADR-RES ovarian): 37.5 µM | GI50 (SW-620 colon): 13.6 µM | TGI (SW-620 colon): 38 µM | GI50 (HCT-15 colon): 7.33 µM | TGI (HCT-15 colon): 25.9 µM | GI50 (MOLT-4 leukemia): 5.9 µM | TGI (MOLT-4 leukemia): 42.3 µM | GI50 (RXF 393 renal): 3.45 µM | TGI (RXF 393 renal): 13.6 µM | GI50 (NCI-H226 lung): 9.46 µM | TGI (NCI-H226 lung): > 90.9 µM | GI50 (BT-549 breast): 19 µM | TGI (BT-549 breast): 99.1 µM | GI50 (OVCAR-4 ovarian): 8.03 µM | TGI (OVCAR-4 ovarian): 26.9 µM | GI50 (MDA-MB-435): 7.37 µM | TGI (MDA-MB-435): 30.7 µM | GI50 (SK-MEL-28 melanoma): 10.8 µM | TGI (SK-MEL-28 melanoma): 29.8 µM | GI50 (ACHN renal): 5.81 µM | TGI (ACHN renal): 36.4 µM | GI50 (K-562 leukemia): 16.3 µM | TGI (K-562 leukemia): > 67.8 µM | GI50 (A549 NSCLC): 8.49 µM | TGI (A549 NSCLC): 25.6 µM | GI50 (OVCAR-5 ovarian): 14.5 µM | TGI (OVCAR-5 ovarian): 44.6 µM | GI50 (CAKI-1 renal): 4.34 µM | TGI (CAKI-1 renal): 38.8 µM | GI50 (HOP-92 NSCLC): 15.1 µM | TGI (HOP-92 NSCLC): 44.9 µM | GI50 (CCRF-CEM leukemia): 5.55 µM | TGI (CCRF-CEM leukemia): 33.3 µM | GI50 (RPMI-8226 leukemia): 4.6 µM | TGI (RPMI-8226 leukemia): 23.8 µM | GI50 (MCF7 breast): 9.27 µM | TGI (MCF7 breast): 39.7 µM | GI50 (UACC-62 melanoma): 9.9 µM | TGI (UACC-62 melanoma): 30.9 µM | GI50 (PC-3 prostate): 6.58 µM | TGI (PC-3 prostate): > 46.7 µM | GI50 (SR leukemia): 2110 nM | TGI (SR leukemia): 11.1 µM | GI50 (OVCAR-3 ovarian): 13.7 µM | TGI (OVCAR-3 ovarian): 34.2 µM | GI50 (A498 renal): 2730 nM | TGI (A498 renal): > 100 µM | GI50 (DU-145 prostate): 9.22 µM | TGI (DU-145 prostate): 21.6 µM | GI50 (MALME-3M melanoma): 6.43 µM | TGI (MALME-3M melanoma): 63.2 µM | GI50 (COLO 205 colon): 11.4 µM | TGI (COLO 205 colon): 35.6 µM | GI50 (SK-MEL-5 melanoma): 8.26 µM | TGI (SK-MEL-5 melanoma): > 100 µM | GI50 (IGROV1 ovarian): 4.79 µM | TGI (IGROV1 ovarian): > 46.1 µM | GI50 (MDA-MB-231 breast): 15 µM | TGI (MDA-MB-231 breast): 31.3 µM | GI50 (SNB-75 CNS): 9.2 µM | TGI (SNB-75 CNS): 40.5 µM | GI50 (NCI-H522 lung): 8.95 µM | TGI (NCI-H522 lung): > 56.9 µM
